What follows are molecules tested against T1, human kinase Mps-1 (Homo sapiens, UniProt P33981) (assay: Mps-1 kinase assay (TR-FRET)). Settings: Mps-1 TR-FRET kinase assay; avg; read-out: Mps1 avg (IC50 [mol/l]).
T1 construct: N-terminally GST-tagged human full length recombinant Mps-1 kinase; GST (N); purchased Invitrogen, Karslruhe, Germany PV4071
T1 sequence (P33981 1-857): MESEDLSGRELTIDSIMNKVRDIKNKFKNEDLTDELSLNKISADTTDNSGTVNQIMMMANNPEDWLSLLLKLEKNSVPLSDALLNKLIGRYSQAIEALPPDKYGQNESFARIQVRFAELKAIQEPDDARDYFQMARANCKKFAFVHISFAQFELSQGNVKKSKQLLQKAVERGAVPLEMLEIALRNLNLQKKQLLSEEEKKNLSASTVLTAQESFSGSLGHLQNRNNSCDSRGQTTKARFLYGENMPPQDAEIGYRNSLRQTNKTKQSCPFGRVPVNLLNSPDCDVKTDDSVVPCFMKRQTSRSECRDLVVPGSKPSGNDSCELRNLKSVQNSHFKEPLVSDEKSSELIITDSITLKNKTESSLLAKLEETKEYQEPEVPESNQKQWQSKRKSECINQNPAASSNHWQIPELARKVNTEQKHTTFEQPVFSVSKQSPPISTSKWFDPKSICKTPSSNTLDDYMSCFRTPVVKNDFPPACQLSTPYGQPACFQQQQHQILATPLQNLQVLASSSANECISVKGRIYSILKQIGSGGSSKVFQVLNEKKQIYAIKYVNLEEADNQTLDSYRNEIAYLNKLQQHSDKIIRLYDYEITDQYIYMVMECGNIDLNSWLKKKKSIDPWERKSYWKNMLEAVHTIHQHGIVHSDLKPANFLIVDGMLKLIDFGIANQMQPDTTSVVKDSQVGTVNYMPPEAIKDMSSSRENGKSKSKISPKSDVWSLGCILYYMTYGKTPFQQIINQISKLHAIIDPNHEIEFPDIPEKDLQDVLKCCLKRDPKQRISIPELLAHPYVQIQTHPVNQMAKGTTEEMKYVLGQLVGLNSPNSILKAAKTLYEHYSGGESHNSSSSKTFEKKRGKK
Type: biochemical
Outline: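 Inhibition normalised between uninhibited reaction (0%) and enzyme-free wells (100%), using the blank-corrected TR-FRET 665/620 nm ratio after EDTA stop. Reaction: ~0.5 nM GST-Mps-1 full length, 10 μM ATP, 1 μM biotin-peptide, 60 min at 22 °C, after 15 min compound pre-binding, pH 7.7.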
In the case of `Cc1nsc(Nc2ccc(C#N)cn2)c1C(=O)Nc1ccc(OC2CCNCC2)nc1` [Example 28, 5-[(5-Cyanopyridin-2-yl)amino]-3-methyl-N-[6-(piperidin-4-yloxy)pyridin-3-yl]-1,2-thiazole-4-carboxannide], the IC50 is reported as ≥ 20 µM. For `Cc1nsc(Nc2ccc(C#N)cn2)c1C(=O)Nc1ccc(OC2CCN(CCF)CC2)nc1` [Example 29, 5-[(5-Cyanopyridin-2-yl)amino]-N-(6-{[1-(2-fluoroethyl)piperidin-4-yl]oxy}pyridin-3-yl)-3-methyl-1,2-thiazole-4-carboxamide], the IC50 was ≥ 20 µM. In the case of `Cc1nsc(Nc2ccc(C#N)cn2)c1C(=O)Nc1ccc(OC2CCN(CC(F)(F)F)CC2)nc1` [Example 30, 5-[(5-Cyanopyridin-2-yl)amino]-3-methyl-N-(6-{[1-(2,2,2-trifluoroethyl)piperidin-4-yl]oxy}pyridin-3-yl)-1,2-thiazole-4-carboxamide], the IC50 is reported as ≥ 20 µM. `Cc1nsc(Nc2cnc3ccccc3n2)c1C(=O)Nc1ccc(OC2CCCN(C(=O)OC(C)(C)C)C2)nc1` (stereo not drawn) [Example 31, tert-Butyl 3-{[5-({[3-methyl-5-(quinoxalin-2-ylamino)-1,2-thiazol-4-yl]carbonyl}-amino)pyridin-2-yl]oxy}piperidine-1-carboxylate] was tested, and the IC50 was ≥ 20 µM. Work on `Cc1nsc(Nc2cnc3ccccc3n2)c1C(=O)Nc1ccc(OC2CCCNC2)nc1` (stereo not drawn) [Example 32, 3-Methyl-N-[6-(piperidin-3-yloxy)pyridin-3-yl]-5-(quinoxalin-2-ylamino)-1,2-thiazole-4-carboxannide] yielded an IC50 of 15 µM. For `Cc1nsc(Nc2cnc3ccccc3n2)c1C(=O)Nc1ccc(OC2CCCN(CC(F)F)C2)nc1` (stereo not drawn) [Example 33, N-(6-{[1-(2,2-Difluoroethyl)piperidin-3-yl]oxy}pyridin-3-yl)-3-methyl-5-(quinoxalin-2-ylamino)-1,2-thiazole-4-carboxamide], the IC50 was ≥ 20 µM. With `Cc1nsc(Nc2cc(C#N)ccn2)c1C(=O)Nc1ccc(OC2CCCN(C(=O)OC(C)(C)C)C2)nc1` (stereo not drawn) [Example 34, tert-Butyl 3({5-[({5-[(4-cyanopyridin-2-yl)amino]-3-methyl-1,2-thiazol-4-yl}-carbonyl)amino]pyridin-2-yl}oxy)piperidine-1-carboxylate] the IC50 was ≥ 20 µM. With `Cc1nsc(Nc2cnc(C(F)(F)F)cn2)c1C(=O)Nc1ccc(OCCNCCC(F)(F)F)nc1` [Example 323, 3-methyl-5-{[5-(trifluoromethyl)pyrazin-2-yl]amino}-N-(6-{2-[(3,3,3-trifluoropropyl)amino]ethoxy}pyridin-3-yl)-1,2-thiazole-4-carboxamide] the IC50 was ≥ 20 µM. `Cc1nsc(Nc2cnc(C(F)(F)F)cn2)c1C(=O)Nc1ccc(OC2CCN(C(CF)CF)CC2)nc1` [Example 324, N-(6-{[1-(1,3-difluoropropan-2-yl)piperidin-4-yl]oxy}pyridin-3-yl)-3-methyl-5-{[5-(trifluoromethyl)pyrazin-2-yl]amino}-1,2-thiazole-4-carboxamide] was tested, and the IC50 was ≥ 20 µM. With `Cc1nsc(Nc2cnc(C(F)(F)F)cn2)c1C(=O)Nc1ccc(OCC2CCCN(CCF)C2)nc1` (stereo not drawn) [Example 325, N-(6-{[1-(2-fluoroethyl)piperidin-3-yl]methoxy}pyridin-3-yl)-3-methyl-5-{[5-(trifluoromethyl)pyrazin-2-yl]amino}-1,2-thiazole-4-carboxamide] the IC50 was ≥ 20 µM. In the case of `Cc1nsc(Nc2cnc(C(F)(F)F)cn2)c1C(=O)Nc1ccc(OCC2CCCN(CC(F)(F)F)C2)nc1` (stereo not drawn) [Example 326, 3-methyl-N-(6-{[1-(2,2,2-trifluoroethyl)piperidin-3-yl]methoxy}pyridin-3-yl)-5-{[5-(trifluoromethyl)pyrazin-2-yl]amino}-1,2-thiazole-4-carboxamide], the IC50 is reported as ≥ 20 µM. In the case of `Cc1nsc(Nc2cnc(C(F)(F)F)cn2)c1C(=O)Nc1ccc(OCC2CCCN(CC(F)F)C2)nc1` (stereo not drawn) [Example 327, N-(6-{[1-(2,2-difluoroethyl)piperidin-3-yl]methoxy}pyridin-3-yl)-3-methyl-5-{[5-(trifluoromethyl)pyrazin-2-yl]amino}-1,2-thiazole-4-carboxamide], the IC50 is reported as ≥ 20 µM.
